Data from PubChem BioAssay AID1259407 (Chemical Carcinogenesis Research Information System (CCRIS), 2018).
Active and inactive are the calls of the source. The rule behind the calls is not given here.

System: CCRIS mutagenicity, Ames/micronucleus/aberration tests
Experiment: CCRIS mutagenicity studies

Measured: mutagenic call

CC(C)(c1ccc(O)cc1)c1ccc(O)cc1
active: End Point: In vitro micronucleus, Test System: Human lymphoblastoid AHH-1 cells, Metabolic Activation: None active; positive (all doses >10.8 ug/ml)
inactive: End Point: IN VITRO CHROMOSOMAL ABERRATIONS, Test System: CHO CELLS, Metabolic Activation: RAT, LIVER, S-9, AROCLOR 1254 inactive; negative; previous trial yielded positive result at 50 ug/ml but no dose-respons | End Point: In vivo micronucleus, Test System: Bone marrow polychromatic erythrocytes, Species: Mouse, Strain/Sex: Swiss/Male, female, Route: Oral inactive; negative | Test System: AMES SALMONELLA TYPHIMURIUM, Strain/Indicator: TA97A, Metabolic Activation: NONE, Method: STANDARD PLATE inactive; negative | Test System: AMES SALMONELLA TYPHIMURIUM, Strain/Indicator: TA97A, Metabolic Activation: RAT LIVER S-9, PHENOBARBITAL AND BETA-NAPHTHAFLAVONE, Method: STANDARD PLATE inactive; negative | Test System: AMES SALMONELLA TYPHIMURIUM, Strain/Indicator: TA98, Metabolic Activation: NONE, Method: PREINCUBATION inactive; negative | Test System: AMES SALMONELLA TYPHIMURIUM, Strain/Indicator: TA98, Metabolic Activation: NONE, Method: STANDARD PLATE inactive; negative | Test System: AMES SALMONELLA TYPHIMURIUM, Strain/Indicator: TA98, Metabolic Activation: RAT LIVER S-9, AROCLOR 1254, Method: STANDARD PLATE inactive; negative | Test System: AMES SALMONELLA TYPHIMURIUM, Strain/Indicator: TA98, Metabolic Activation: RAT LIVER S-9, PHENOBARBITAL AND BETA-NAPHTHAFLAVONE, Method: STANDARD PLATE inactive; negative | Test System: AMES SALMONELLA TYPHIMURIUM, Strain/Indicator: TA98, Metabolic Activation: RAT LIVER S-9, PHENOBARBITAL AND BETA-NAPHTHOFLAVONE, Method: PREINCUBATION inactive; negative | Test System: AMES SALMONELLA TYPHIMURIUM, Strain/Indicator: TA98, Metabolic Activation: S-9, Method: PREINCUBATION inactive; negative | Test System: AMES SALMONELLA TYPHIMURIUM, Strain/Indicator: TA100, Metabolic Activation: NONE, Method: PREINCUBATION inactive; negative | Test System: AMES SALMONELLA TYPHIMURIUM, Strain/Indicator: TA100, Metabolic Activation: NONE, Method: STANDARD PLATE inactive; negative | Test System: AMES SALMONELLA TYPHIMURIUM, Strain/Indicator: TA100, Metabolic Activation: RAT LIVER S-9, AROCLOR 1254, Method: STANDARD PLATE inactive; negative | Test System: AMES SALMONELLA TYPHIMURIUM, Strain/Indicator: TA100, Metabolic Activation: RAT LIVER S-9, PHENOBARBITAL AND BETA-NAPHTHAFLAVONE, Method: STANDARD PLATE inactive; negative | Test System: AMES SALMONELLA TYPHIMURIUM, Strain/Indicator: TA100, Metabolic Activation: RAT LIVER S-9, PHENOBARBITAL AND BETA-NAPHTHOFLAVONE, Method: PREINCUBATION inactive; negative | Test System: AMES SALMONELLA TYPHIMURIUM, Strain/Indicator: TA100, Metabolic Activation: S-9, Method: PREINCUBATION inactive; negative | Test System: AMES SALMONELLA TYPHIMURIUM, Strain/Indicator: TA102, Metabolic Activation: NONE, Method: STANDARD PLATE inactive; negative | Test System: AMES SALMONELLA TYPHIMURIUM, Strain/Indicator: TA102, Metabolic Activation: RAT LIVER S-9, PHENOBARBITAL AND BETA-NAPHTHAFLAVONE, Method: STANDARD PLATE inactive; negative | Test System: AMES SALMONELLA TYPHIMURIUM, Strain/Indicator: TA1535, Metabolic Activation: NONE, Method: PREINCUBATION inactive; negative | Test System: AMES SALMONELLA TYPHIMURIUM, Strain/Indicator: TA1535, Metabolic Activation: RAT LIVER S-9, PHENOBARBITAL AND BETA-NAPHTHOFLAVONE, Method: PREINCUBATION inactive; negative | Test System: AMES SALMONELLA TYPHIMURIUM, Strain/Indicator: TA1537, Metabolic Activation: NONE, Method: PREINCUBATION inactive; negative | Test System: AMES SALMONELLA TYPHIMURIUM, Strain/Indicator: TA1537, Metabolic Activation: RAT LIVER S-9, PHENOBARBITAL AND BETA-NAPHTHOFLAVONE, Method: PREINCUBATION inactive; negative | Test System: CHINESE HAMSTER V-79, Strain/Indicator: V-79 (HPRT)/6-THIOGUANINE, Metabolic Activation: NONE inactive; negative | Test System: E.COLI, Strain/Indicator: WP2UVRA, Metabolic Activation: NONE, Method: PREINCUBATION inactive; negative | Test System: E.COLI, Strain/Indicator: WP2UVRA, Metabolic Activation: RAT LIVER S-9, PHENOBARBITAL AND BETA-NAPHTHOFLAVONE, Method: PREINCUBATION inactive; negative
